ChEMBL document CHEMBL1201862, “PubChem BioAssay data set” (2004)
The source made the active and inactive calls.

Legend:
cells [1] = format: functional, cell-based
[2] = molecular target: T1, Nuclear receptor subfamily 0 group B member 1 (Homo sapiens, UniProt P51843); format: functional, cell-based;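 also: HEK293T cells transfected with SF-1 and DAX-1 plus StAR promoter luciferase reporter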
T1 sequence (P51843 whole entry): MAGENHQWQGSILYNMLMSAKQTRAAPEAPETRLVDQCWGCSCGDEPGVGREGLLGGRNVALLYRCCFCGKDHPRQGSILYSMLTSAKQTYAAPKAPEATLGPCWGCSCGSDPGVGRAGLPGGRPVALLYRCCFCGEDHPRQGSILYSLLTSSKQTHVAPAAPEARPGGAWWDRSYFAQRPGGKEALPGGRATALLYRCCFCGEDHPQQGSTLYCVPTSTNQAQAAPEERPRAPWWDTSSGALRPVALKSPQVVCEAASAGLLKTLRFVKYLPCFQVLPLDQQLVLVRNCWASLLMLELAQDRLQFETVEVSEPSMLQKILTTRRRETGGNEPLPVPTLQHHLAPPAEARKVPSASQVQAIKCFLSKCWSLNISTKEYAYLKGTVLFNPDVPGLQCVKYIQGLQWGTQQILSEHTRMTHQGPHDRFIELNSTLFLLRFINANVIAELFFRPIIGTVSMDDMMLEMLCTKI

Vero [3] = assay: viability loss in Vero cells – cell-based, plate reader, cherry-pick samples, cytotoxicity control, dose response (AID 687020); format: functional; settings: Chlorocebus sabaeus
cells [4] = format: functional, cell-based; remark: listed apart in the source
[5] = molecular target: T2, Trace amine-associated receptor 1 (Homo sapiens, UniProt Q96RJ0); assay: Fluorescence-based cell-based high throughput dose response assay to identify agonists of the human trace amine associated receptor 1 (TAAR1).; format: functional
T2 sequence (Q96RJ0 whole entry): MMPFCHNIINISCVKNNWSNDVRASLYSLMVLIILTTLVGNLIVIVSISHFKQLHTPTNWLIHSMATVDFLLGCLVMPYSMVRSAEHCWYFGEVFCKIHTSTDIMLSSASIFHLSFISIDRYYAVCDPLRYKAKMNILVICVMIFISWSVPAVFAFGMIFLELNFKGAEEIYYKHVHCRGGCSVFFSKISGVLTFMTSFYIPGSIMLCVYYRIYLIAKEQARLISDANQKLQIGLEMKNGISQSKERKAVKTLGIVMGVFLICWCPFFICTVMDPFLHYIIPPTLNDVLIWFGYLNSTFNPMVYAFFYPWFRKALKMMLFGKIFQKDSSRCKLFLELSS

[6] = molecular target: T2, Trace amine-associated receptor 1; assay: Counterscreen for agonists of the human trace amine associated receptor 1 (hTAAR1): Fluorescence-based cell-based high throughput dose response assay to identify hTAAR1 agonist that also desensitize TAAR1 receptor response.; format: functional
cells [7] = format: functional, cell-based; remark: listed apart in the source
[8] = Luminescence Cell-Based Dose Retest to Confirm Inhibitors of Cancer Stem Cells. [Related pubchem assays (depositor defined):AID2717, AID2721]; format: functional; settings: Homo sapiens
[9] = molecular target: T3, Small ubiquitin-related modifier 1 (Homo sapiens, UniProt P63165); assay: SUMO1 protein interaction blockers, potency – biochemical, fluorescence polarization, uHTS hits, dose response (AID 624382); format: functional; settings: read-out: IC50_Mean
[10] = molecular target: T3, Small ubiquitin-related modifier 1; assay: SUMO1 protein-protein binding blockers, potency – biochemical, FRET, dose response (AID 624383); format: functional; settings: read-out: IC50_Mean
[11] = viability loss in HeLa cells – cytotoxicity control for MgcRacGAP inhibitor project, dose response (AID 624300); format: functional
[12] = molecular target: T4, Rac GTPase-activating protein 1 (Homo sapiens, UniProt Q9H0H5); assay: blockers of MgcRacGAP-driven Rac1 GTP hydrolysis – biochemical, ADP Hunter fluorescence, primary and confirmatory, confirmation (AID 624330); format: functional
T4 sequence (Q9H0H5 whole entry): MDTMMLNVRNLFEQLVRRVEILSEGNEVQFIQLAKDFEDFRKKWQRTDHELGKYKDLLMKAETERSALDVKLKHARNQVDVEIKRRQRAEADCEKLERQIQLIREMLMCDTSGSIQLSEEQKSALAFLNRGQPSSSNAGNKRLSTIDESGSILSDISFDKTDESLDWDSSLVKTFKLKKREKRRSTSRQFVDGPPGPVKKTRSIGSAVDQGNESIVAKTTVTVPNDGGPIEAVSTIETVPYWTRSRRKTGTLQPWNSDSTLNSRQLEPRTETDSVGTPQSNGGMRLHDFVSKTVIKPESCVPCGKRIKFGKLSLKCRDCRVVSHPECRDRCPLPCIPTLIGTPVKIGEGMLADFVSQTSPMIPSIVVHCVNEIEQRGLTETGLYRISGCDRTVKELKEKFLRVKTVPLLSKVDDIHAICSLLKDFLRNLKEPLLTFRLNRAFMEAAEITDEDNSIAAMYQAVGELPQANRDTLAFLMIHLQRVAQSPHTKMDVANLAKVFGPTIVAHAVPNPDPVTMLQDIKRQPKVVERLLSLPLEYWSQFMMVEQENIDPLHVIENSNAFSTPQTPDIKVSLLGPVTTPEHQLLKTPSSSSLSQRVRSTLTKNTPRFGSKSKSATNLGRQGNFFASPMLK

Streptokinase A = molecular target: T5, Streptokinase A (Streptococcus pyogenes serotype M1, UniProt P10520); assay: viability-normalized secreted streptokinase activity reduction – plasminogen activation absorbance, OD405, dose response (AID 1914); format: functional, Streptococcus pyogenes M1 GAS;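 also: secreted streptokinase activity via plasminogen activation per viability signal from cell pellet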
T5 sequence (P10520 whole entry): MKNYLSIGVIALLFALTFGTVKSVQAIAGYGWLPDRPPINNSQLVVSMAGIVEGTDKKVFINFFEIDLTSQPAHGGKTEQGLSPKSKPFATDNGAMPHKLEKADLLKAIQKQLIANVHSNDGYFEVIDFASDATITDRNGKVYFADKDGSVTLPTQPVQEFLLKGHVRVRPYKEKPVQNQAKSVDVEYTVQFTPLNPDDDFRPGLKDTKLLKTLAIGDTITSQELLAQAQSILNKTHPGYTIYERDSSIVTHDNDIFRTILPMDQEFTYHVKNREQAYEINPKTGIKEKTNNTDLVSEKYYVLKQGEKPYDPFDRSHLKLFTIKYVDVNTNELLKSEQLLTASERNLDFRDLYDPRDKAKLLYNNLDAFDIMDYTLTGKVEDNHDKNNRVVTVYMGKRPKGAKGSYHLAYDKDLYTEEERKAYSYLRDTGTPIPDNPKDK

Streptococcus = assay: GAS UMAA2166 growth inhibition – luminescence, BacTiterGlo, counter-screen for streptokinase expression inhibitor project, dose response (AID 1915); format: functional, organism-based;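 also: potency for reduction of bacterial viability or growth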
[13] = molecular target: SWI/SNF-related matrix-associated actin-dependent regulator of chromatin subfamily A member 2 (Homo sapiens, UniProt P51531); assay: Luminescence-based cell-based high throughput dose response assay to identify activators of the function of SWI/SNF related, matrix associated, actin dependent regulator of chromatin, subfamily a, member 2 (SMARCA2, BRM).; format: functional
[14] = Counterscreen for activators of the function of SWI/SNF related, matrix associated, actin dependent regulator of chromatin, subfamily a, member 2 (SMARCA2, BRM): Luminescence-based cell-based high throughput dose response assay to identify non-selective compounds using the VP16 reporter assay.; format: functional
[15] = molecular target: T6, DNA repair protein RAD52 homolog (Homo sapiens, UniProt P43351); format: functional, biochemical
T6 sequence (P43351 whole entry): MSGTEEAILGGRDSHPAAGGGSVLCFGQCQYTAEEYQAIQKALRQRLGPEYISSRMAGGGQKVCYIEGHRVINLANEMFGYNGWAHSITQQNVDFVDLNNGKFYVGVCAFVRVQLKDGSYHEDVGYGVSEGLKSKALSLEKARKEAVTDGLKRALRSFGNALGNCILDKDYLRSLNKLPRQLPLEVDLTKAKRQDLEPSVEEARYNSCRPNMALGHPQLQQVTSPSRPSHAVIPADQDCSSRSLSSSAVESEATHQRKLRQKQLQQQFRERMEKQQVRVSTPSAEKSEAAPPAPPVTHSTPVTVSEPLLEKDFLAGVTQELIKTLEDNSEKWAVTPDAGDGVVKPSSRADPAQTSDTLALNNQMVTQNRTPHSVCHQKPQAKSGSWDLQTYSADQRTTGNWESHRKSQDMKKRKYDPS

Aminopeptidase N = molecular target: T7, Aminopeptidase N (Plasmodium falciparum FcB1/Columbia, UniProt O96935); assay: malaria alanyl aminopeptidase activity blockers – biochemical, fluorogenic H-Leu-NHMec substrate, 1536-well (AID 1445); design: species or system Plasmodium falciparum 3D7, 3D7
T7 sequence (O96935 whole entry): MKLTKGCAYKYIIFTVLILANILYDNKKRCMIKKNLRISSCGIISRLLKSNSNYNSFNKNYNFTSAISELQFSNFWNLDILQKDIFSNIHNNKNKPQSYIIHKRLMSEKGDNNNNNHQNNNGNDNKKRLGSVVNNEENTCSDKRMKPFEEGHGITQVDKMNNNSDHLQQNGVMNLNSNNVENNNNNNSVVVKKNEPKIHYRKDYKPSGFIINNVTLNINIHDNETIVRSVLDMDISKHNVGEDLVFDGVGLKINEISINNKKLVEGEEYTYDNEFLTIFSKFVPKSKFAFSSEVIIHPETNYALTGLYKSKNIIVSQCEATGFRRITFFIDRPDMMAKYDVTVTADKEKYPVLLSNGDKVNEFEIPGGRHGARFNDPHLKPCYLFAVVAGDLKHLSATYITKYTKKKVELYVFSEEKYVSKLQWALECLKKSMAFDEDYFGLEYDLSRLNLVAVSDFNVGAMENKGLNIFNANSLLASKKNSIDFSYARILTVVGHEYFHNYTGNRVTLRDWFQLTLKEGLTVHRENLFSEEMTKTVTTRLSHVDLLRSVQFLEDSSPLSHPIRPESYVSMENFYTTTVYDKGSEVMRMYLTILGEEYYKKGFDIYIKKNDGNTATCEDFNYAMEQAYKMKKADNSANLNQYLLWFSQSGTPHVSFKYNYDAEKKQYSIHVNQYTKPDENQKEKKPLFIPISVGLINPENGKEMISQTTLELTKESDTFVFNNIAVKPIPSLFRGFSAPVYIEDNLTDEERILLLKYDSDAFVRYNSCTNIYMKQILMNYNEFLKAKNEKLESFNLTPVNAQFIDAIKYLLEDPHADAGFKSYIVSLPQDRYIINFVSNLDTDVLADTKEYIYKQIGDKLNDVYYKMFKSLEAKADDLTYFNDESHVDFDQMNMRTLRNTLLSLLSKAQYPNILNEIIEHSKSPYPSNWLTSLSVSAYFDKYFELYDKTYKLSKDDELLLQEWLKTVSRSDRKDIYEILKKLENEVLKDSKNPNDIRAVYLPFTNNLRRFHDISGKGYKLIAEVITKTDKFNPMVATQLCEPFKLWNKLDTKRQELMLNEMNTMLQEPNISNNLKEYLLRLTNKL

Vero [16] = assay: cells; format: functional, cell-based; settings: Chlorocebus sabaeus
[17] = molecular target: T8, Sentrin-specific protease 1 (Homo sapiens, UniProt Q9P0U3); assay: SENP1 catalytic domain blockers, concentration series – biochemical, kinetic FRET, dose response (AID 651697); format: functional; settings: read-out: IC50_Mean
T8 sequence (Q9P0U3 whole entry): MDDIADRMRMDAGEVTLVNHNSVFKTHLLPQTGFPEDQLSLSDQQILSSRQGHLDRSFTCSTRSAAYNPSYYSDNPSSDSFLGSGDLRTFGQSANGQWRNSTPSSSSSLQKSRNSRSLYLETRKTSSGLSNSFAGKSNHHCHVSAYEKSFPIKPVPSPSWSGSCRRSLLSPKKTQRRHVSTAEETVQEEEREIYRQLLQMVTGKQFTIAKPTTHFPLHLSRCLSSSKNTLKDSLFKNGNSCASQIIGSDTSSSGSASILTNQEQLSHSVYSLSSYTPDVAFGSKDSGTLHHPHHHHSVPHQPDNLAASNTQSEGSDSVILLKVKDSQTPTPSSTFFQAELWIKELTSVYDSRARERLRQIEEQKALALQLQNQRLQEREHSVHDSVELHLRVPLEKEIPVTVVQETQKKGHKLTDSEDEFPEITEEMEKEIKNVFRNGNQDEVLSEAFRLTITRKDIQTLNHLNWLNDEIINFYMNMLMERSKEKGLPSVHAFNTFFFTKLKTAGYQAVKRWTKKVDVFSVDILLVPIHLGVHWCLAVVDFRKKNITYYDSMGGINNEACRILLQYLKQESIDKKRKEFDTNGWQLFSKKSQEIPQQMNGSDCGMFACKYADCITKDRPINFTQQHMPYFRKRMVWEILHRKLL

[18] = molecular target: T8, Sentrin-specific protease 1; assay: Dose response confirmation of small molecule inhibitors of the catalytic domain of the SUMO protease, SENP1 in a FRET assay.; format: functional; settings: read-out: IC50_Mean

T3 sequence (P63165 whole entry): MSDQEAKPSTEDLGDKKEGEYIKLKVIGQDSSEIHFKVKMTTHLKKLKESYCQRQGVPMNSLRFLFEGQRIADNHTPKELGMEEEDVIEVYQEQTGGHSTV
Sequence of SWI/SNF-related matrix-associated actin-dependent regulator of chromatin subfamily A member 2 (P51531 whole entry): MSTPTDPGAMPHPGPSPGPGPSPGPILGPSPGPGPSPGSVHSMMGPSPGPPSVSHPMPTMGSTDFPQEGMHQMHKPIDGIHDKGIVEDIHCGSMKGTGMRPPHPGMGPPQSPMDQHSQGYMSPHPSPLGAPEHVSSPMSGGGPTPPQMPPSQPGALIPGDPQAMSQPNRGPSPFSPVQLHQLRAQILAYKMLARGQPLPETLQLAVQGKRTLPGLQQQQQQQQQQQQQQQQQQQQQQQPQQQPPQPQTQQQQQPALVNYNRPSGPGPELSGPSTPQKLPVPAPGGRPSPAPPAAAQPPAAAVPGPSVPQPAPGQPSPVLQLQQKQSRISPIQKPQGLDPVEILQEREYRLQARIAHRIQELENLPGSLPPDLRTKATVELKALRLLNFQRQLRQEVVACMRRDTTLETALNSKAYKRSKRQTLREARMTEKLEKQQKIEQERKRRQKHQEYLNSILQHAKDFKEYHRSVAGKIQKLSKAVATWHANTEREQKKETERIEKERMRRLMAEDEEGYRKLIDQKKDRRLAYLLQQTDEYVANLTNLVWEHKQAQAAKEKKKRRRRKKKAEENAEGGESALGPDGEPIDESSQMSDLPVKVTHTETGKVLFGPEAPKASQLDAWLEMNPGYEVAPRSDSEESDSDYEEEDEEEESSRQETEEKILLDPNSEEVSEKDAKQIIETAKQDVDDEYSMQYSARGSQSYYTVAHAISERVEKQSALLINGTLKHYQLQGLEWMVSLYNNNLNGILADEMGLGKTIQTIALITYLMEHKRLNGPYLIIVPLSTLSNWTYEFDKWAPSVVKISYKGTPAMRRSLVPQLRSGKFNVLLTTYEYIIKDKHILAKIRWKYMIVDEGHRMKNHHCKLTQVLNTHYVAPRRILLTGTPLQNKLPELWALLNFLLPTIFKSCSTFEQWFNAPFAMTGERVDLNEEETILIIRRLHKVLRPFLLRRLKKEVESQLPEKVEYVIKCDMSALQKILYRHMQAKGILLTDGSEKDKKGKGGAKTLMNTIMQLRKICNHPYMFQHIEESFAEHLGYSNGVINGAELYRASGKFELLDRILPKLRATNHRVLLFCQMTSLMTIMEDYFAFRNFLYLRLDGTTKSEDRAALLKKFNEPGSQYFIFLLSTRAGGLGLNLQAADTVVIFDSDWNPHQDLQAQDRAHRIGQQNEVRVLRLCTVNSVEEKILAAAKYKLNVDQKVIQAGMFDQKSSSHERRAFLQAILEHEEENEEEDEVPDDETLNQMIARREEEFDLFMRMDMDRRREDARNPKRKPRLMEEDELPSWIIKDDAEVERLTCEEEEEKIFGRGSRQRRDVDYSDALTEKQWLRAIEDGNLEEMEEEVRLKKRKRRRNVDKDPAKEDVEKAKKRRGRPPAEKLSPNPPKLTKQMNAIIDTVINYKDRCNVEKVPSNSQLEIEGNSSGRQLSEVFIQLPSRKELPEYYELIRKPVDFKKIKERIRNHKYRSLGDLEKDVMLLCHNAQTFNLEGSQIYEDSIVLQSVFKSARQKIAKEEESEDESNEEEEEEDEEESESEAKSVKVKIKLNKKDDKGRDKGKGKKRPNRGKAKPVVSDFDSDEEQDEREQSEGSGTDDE

SMILES: Cc1cc(C)c2nc(NC(=O)c3ccco3)sc2c1
- IC50 (cells [1]): > 67.5 µM (inactive)
- IC50 [2]: > 0.278 µM (active)

SMILES: CCOc1ccccc1-c1nnc(CS(=O)(=O)c2ccccc2)o1
- AC50 (Vero [3]): 23.9 µM (active)

SMILES: COc1cccc(N2CN(CCc3ccccc3)CN=C2S)c1
- IC50 (cells [4]): > 29.9 µM (inactive)
- EC50 [5]: 0.758 µM (active)
- IC50 [6]: 3.52 µM (active)
- EC50 (cells [7]): > 29.9 µM (inactive)

SMILES: O=C(O)c1cccc(S(=O)(=O)NNc2ccccc2C(F)(F)F)c1
- AC50 [8]: 10.8 µM (active)
- IC50 [9]: > 66.6 µM (inactive)
- IC50 [10]: 9.06 µM (active)

SMILES: CN(C(=O)C1CCC(=O)N(Cc2cccc(F)c2)C1)C1CCCCC1 (stereo not drawn)
- IC50 (cells [1]): > 67.6 µM (inactive)
- IC50 [2]: > 67.6 µM (inactive)

SMILES: Fc1ccc(CNc2ccc(N3CCN(Cc4ccccc4)CC3)cc2)cc1
- CC50 [11]: 98.7 µM (active)
- IC50 [12]: 15.4 µM (active)

SMILES: O=C(Nc1cccc(-c2nc3ccccc3[nH]2)c1)c1ccc(C(=O)Nc2cccc(-c3nc4ccccc4[nH]3)c2)cc1
- EC50 (Streptokinase A): > 150 µM (not active)
- EC50 (Streptococcus): 61.9 µM (active)
- IC50 [9]: > 66.6 µM (inactive)
- IC50 [10]: 6.29 µM (active)

SMILES: COc1ccc(-c2nc3c(C(=O)NCCN(C)C)cccc3c3ccccc23)cc1
- EC50 [13]: > 91.2 µM (inactive)
- EC50 [14]: > 91.2 µM (inactive)
- AC50 [15]: 2.89 µM (active)

SMILES: O=C(C[C@H]1C(=O)N(Cc2ccccc2)C[C@@H]1Cc1ccccc1)Nc1ccc(Br)cc1
- AC50 (Vero [3]): 31.4 µM (active)

SMILES: Cn1ccc(C(=O)N/N=C/c2c[nH]c3ccccc23)n1
- EC50 [13]: > 91.2 µM (inactive)
- EC50 [14]: > 91.2 µM (inactive)

SMILES: O=C(N/N=C(\CC(=O)c1cccs1)C(F)(F)F)c1ccncc1
- IC50 (Aminopeptidase N): 48.8 µM (active)
- IC50 (Vero [16]): 24.8 µM (active)
- IC50 [17]: 38 µM (inactive)
- IC50 [18]: 10.1 µM (active)
